Test results published in patent US20080076926A1, “Process for the preparation of 4-hydroxythieno[2,3-b]pyridine-5-carbonitriles” (priority 2006, published 2008).

Compound | melting point [°C]
Cc1csc2[nH]cc(C#N)c(=O)c12 [Example 3, 3-methyl-4-oxo-4,7-dihydrothieno[2,3-b]pyridine-5-carbonitrile] | 285
CC(C)c1c(I)sc2ncc(C#N)c(Cl)c12 [Example 8, 4-chloro-2-iodo-3-isopropylthieno[2,3-b]pyridine-5-carbonitrile] | 177 to 179
Cc1cc2c(Cl)c(C#N)cnc2s1 [Example 10, 4-chloro-2-methylthieno[2,3-b]pyridine-5-carbonitrile] | 110 to 112
N#Cc1cnc2sc(-c3ccccc3)cc2c1Cl [Example 16, 4-chloro-2-phenylthieno[2,3-b]pyridine-5-carbonitrile] | 202 to 204
N#Cc1cnc2sc(Br)cc2c1O [Example 30, 2-bromo-4-hydroxythieno[2,3-b]pyridine-5-carbonitrile] | > 255
